Measured values published in patent publication US12358915B2, “METTL3 inhibitory compounds” (STORM THERAPEUTICS LTD., priority 2019, dated 2025).
Read-outs that look alike come from different tables or passages of the source. One block for each compound: values may come before it.

How the values were obtained:
MOLM-13 cells = assay: MOLM13 CTG - analysis of cell proliferation (Cell Titre Glo); format: cell-based; conditions: Homo sapiens, geometric mean, read-out: CTG MOLM13 cells IC50 GEOMEAN
Description: MOLM-13 or MOLM-14 cells were plated, in suspension, in 24 well tissue culture plates at final concentration of 200,000/ml, with or without 50 ng/ml IFNγ. […] Cells were incubated for 4 days at 37° C. at which point 600 μl of cell suspension was removed for Mass spectrometry analysis of m6A. 600 μl of fresh media containing the appropriate concentration of METTL3 inhibitor/IFNγ was added to remaining cell suspensions. Cells where then cultured for a further 7 days, cell suspension was sampled for analysis of proliferation and Cell surface markers periodically.
At regular time points (4, 5, 6 &7) days cells were mixed to maintain a homogenous cell suspension. 25 μl of this cell suspension was removed and added to a white 384 well plate, 25 μl of Cell Titre Glo reagent (Promega) was added, and incubated for 10 mins at room temperature before measurement of luminescence intensity, as per the manufacturers instructions.

METTL3/14 = biological target: T1, METTL3/14 (Homo sapiens, UniProt Q86U44); assay: METTL3/14 methyltransferase assay (METTL3_14 RFMS, RapidFire mass spectrometry); format: biochemical; conditions: read-out: METTL3_14 RFMS IC50;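 note: recombinant His-tagged METTL3 with FLAG-tagged METTL14 from baculovirus, SAH product quantified by mass spectrometry against isotope-labelled internal standards, 60 min at room temperature, scaled between no-RNA and DMSO-only wells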
T1 construct: The enzyme used was full-length his-tagged METTL3; His; made in house
T1 sequence (Q86U44 whole entry): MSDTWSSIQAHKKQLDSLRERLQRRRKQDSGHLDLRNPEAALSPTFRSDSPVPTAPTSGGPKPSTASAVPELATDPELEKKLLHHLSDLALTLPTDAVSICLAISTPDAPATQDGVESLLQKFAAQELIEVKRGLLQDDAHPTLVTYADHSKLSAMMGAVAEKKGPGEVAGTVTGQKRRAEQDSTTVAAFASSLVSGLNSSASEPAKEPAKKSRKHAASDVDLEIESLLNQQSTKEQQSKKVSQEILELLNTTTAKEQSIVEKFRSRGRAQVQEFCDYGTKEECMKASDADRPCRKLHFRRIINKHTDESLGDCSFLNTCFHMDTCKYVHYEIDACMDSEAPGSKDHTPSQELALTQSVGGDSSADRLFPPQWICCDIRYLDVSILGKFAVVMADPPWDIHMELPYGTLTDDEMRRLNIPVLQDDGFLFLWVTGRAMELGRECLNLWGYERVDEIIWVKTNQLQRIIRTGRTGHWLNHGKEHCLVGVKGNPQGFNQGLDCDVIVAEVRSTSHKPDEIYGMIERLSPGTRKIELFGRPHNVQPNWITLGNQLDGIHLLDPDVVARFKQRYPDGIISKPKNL
T1 sequence (Q9HCE5 whole entry partner): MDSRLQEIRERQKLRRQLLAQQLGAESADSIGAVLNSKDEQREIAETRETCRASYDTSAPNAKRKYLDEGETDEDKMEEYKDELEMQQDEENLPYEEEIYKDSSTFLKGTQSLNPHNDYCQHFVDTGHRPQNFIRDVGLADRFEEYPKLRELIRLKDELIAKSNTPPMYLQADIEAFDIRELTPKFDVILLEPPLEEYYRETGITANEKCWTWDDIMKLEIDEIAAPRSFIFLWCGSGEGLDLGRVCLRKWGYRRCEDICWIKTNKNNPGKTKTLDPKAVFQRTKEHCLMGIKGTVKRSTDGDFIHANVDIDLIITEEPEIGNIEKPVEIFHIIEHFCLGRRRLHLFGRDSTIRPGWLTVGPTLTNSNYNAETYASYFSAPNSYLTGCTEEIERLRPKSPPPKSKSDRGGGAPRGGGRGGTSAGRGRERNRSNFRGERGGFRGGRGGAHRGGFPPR

Caov-3 cells = assay: Caov3 CTG assay - proliferation assay; format: cell-based; conditions: Homo sapiens, 120 hours treatment, 30 μM top concentration, CellTiter-Glo, geometric mean, read-out: CTG Caov3 cells IC50 GEOMEAN
Description: Upon treatment, Coav-3 cells were incubated for 10 min at RT with the CellTiter-Glo reagent (G7571, Promega). Measurement of the luminescence signal was performed on a microplate reader (Ensight, PerkinElmer).

[1] = 5 nM METTL3/14, 0.2 μM RNA substrate, 0.5 μM SAM, lower limit of the assay IC50=5 nM, Compounds 266-351
[2] = 5 nM METTL3/14, 0.2 μM RNA substrate, 0.5 μM SAM, lower limit of the assay IC50=5 nM, Compounds 63-265

IC50 (MOLM-13 cells): 4.38 µM | IC50 (METTL3/14; [1]): 0.00784 µM
Compound: OC1(CNCc2ccc3nc(Cn4cc(-c5cc(F)cc6[nH]ncc56)nn4)cn3c2)CCC1 [Example 319, 1-[[[2-[[4-(6-fluoro-1H-indazol-4-yl)triazol-1-yl]methyl]imidazo[1,2-a]pyridin-6-yl]methylamino]methyl]cyclobutanol]

IC50 (MOLM-13 cells): ≥ 30 µM | IC50 (METTL3/14; [1]): 0.737 µM
Compound: O=C(O)c1cc(-c2cn(Cc3cn4cc(CNCC5CCC5)ccc4n3)nn2)c2cn[nH]c2c1 [Example 297, 4-[1-[[6-[(cyclobutylmethylamino)methyl]imidazo[1,2-a]pyridin-2-yl]methyl]triazol-4-yl]-1H-indazole-6-carboxylic acid]

IC50 (MOLM-13 cells): 1.83 µM | IC50 (METTL3/14; [1]): 0.00601 µM
Compound: Fc1ccc(-c2cn(Cc3cn4cc(CNCC5CCC5)ccc4n3)nn2)c2cn[nH]c12 [Example 305, N-(cyclobutylmethyl)-1-[2-[[4-(7-fluoro-1H-indazol-4-yl)triazol-1-yl]methyl]imidazo[1,2-a]pyridin-6-yl]methanamine]

IC50 (MOLM-13 cells): 11.3 µM | IC50 (METTL3/14; [1]): 0.0376 µM
Compound: O=C(NCc1cn2cc(C(Cc3ccccc3)NCC3CCC3)ccc2n1)c1cc(=O)n2ccccc2n1 (stereo not drawn) [Example 313, N-[[6-[1-(cyclobutylmethylamino)-2-phenyl-ethyl]imidazo[1,2-a]pyridin-2-yl]methyl]-4-oxo-pyrido[1,2-a]pyrimidine-2-carboxamide]

IC50 (MOLM-13 cells): ≥ 30 µM | IC50 (METTL3/14; [1]): 0.0421 µM
Compound: NC(=O)c1cc(-c2cn(Cc3cn4cc(CNCC5CCC5)ccc4n3)nn2)c2cn[nH]c2c1 [Example 298, 4-[1-[[6-[(cyclobutylmethylamino)methyl]imidazo[1,2-a]pyridin-2-yl]methyl]triazol-4-yl]-1H-indazole-6-carboxamide]

IC50 (MOLM-13 cells): ≥ 30 µM | IC50 (METTL3/14; [1]): 0.202 µM
Compound: N#CCC(NCC1CCC1)c1ccc2nc(CNC(=O)c3cc(=O)n4ccccc4n3)cn2c1 (stereo not drawn) [Example 330, N-[[6-[2-cyano-1-(cyclobutylmethylamino)ethyl]imidazo[1,2-a]pyridin-2-yl]methyl]-4-oxo-pyrido[1,2-a]pyrimidine-2-carboxamide]

IC50 (MOLM-13 cells): 0.362 µM | IC50 (METTL3/14): ≤ 0.00444 µM
Compound: Brc1cc(-c2cn(Cc3cn4cc(CNCC5CCC5)ccc4n3)nn2)c2cn[nH]c2c1 [Example 296, 1-[2-[[4-(6-bromo-1H-indazol-4-yl)triazol-1-yl]methyl]imidazo[1,2-a]pyridin-6-yl]-N-(cyclobutylmethyl)methanamine]

IC50 (MOLM-13 cells): 10.7 µM | IC50 (METTL3/14; [1]): 0.0766 µM
Compound: OC1(CNCc2ccc3nc(Cn4cc(-c5nccc6[nH]ncc56)nn4)cn3c2)CCC1 [Example 326, 1-[[[2-[[4-(1H-pyrazolo[4,3-c]pyridin-4-yl)triazol-1-yl]methyl]imidazo[1,2-a]pyridin-6-yl]methylamino]methyl]cyclobutanol]

IC50 (MOLM-13 cells): 5.33 µM | IC50 (METTL3/14; [1]): 0.0106 µM
Compound: COc1ccc2[nH]ncc2c1-c1cn(Cc2cn3cc(CNCC4(O)CCC4)ccc3n2)nn1 [Example 268, 1-[[[2-[[4-(5-methoxy-1H-indazol-4-yl)triazol-1-yl]methyl]imidazo[1,2-a]pyridin-6-yl]methylamino]methyl]cyclobutanol]

The remaining lines, values behind:

Compound: O=C(NCc1cn2cc(CNCC34CC(F)(C3)C4)ccc2n1)c1cc(=O)n2ccccc2n1 [Compound 276, N-[[6-[[(3-fluoro-1-bicyclo[1.1.1]pentanyl)methylamino]methyl]imidazo[1,2-a]pyridin-2-yl]methyl]-4-oxo-pyrido[1,2-a]pyrimidine-2-carboxamide]
IC50 (MOLM-13 cells): 0.657 µM | IC50 (METTL3/14; [1]): 0.0061 µM | IC50 (Caov-3 cells): 0.248 µM

Compound: CC1(C)CCN(Cc2ccc3nc(Cn4cc(-c5cccc6[nH]ncc56)nn4)cn3c2)CC1 [Example 251, 4-[1-({6-[(4,4-dimethylpiperidin-1-yl)methyl]imidazo[1,2-a]pyridin-2-yl}methyl)-1H-1,2,3-triazol-4-yl]-1H-indazole]
IC50 (MOLM-13 cells): 0.727 µM | IC50 (METTL3/14; [2]): 0.00576 µM

Compound: CC(C)(C)CNCc1ccc2nc(Cn3cc(-c4cc(Br)cc5[nH]ncc45)nn3)cn2c1 [Example 225, [(2-{[4-(6-bromo-1H-indazol-4-yl)-1H-1,2,3-triazol-1-yl]methyl}imidazo[1,2-a]pyridin-6-yl)methyl](2,2-dimethylpropyl)amine]
IC50 (MOLM-13 cells): 0.649 µM | IC50 (METTL3/14; [2]): 0.00669 µM

Compound: O=C(NCc1cn2cc(CNCc3ccccc3)ccc2n1)c1cccc2[nH]ncc12 [Compound 178, N-({6-[(benzylamino)methyl]imidazo [1,2-a]pyridin-2-yl}methyl)-1H-indazole-4-carboxamide]
IC50 (MOLM-13 cells): 9.89 µM | IC50 (METTL3/14; [2]): 0.209 µM

Compound: O=C(NCc1cn2cc(CNCC3(O)CCC3)ccc2n1)c1cc(=O)n2ccccc2n1 [Compound 288, N-[[6-[[(1-hydroxycyclobutyl)methylamino]methyl]imidazo[1,2-a]pyridin-2-yl]methyl]-4-oxo-pyrido[1,2-a]pyrimidine-2-carboxamide]
IC50 (MOLM-13 cells): 7.32 µM | IC50 (METTL3/14; [1]): 0.0139 µM

Compound: CN(Cc1ccccc1)Cc1ccc2nc(CNC(=O)c3cc(=O)n4ccccc4n3)cn2c1 [Compound 74, N-[(6-{[benzyl (methyl)amino]methyl}imidazo [1,2-a]pyridin-2-yl)methyl]-4-oxo-4H-pyrido [1,2-a]pyrimidine-2-carboxamide]
IC50 (MOLM-13 cells): ≥ 30 µM | IC50 (METTL3/14; [2]): 0.122 µM

Compound: CC(C)(C)NCc1ccc2nc(CNC(=O)c3cc(=O)n4ccccc4n3)cn2c1 [Compound 127, N-({6-[(tert-butylamino)methyl]imidazo [1,2-a]pyridin-2-yl}methyl)-4-oxo-4H-pyrido[1,2-a] pyrimidine-2-carboxamide]
IC50 (MOLM-13 cells): ≥ 30 µM | IC50 (METTL3/14; [2]): 0.429 µM

Compound: CC(C)(C)CNCc1ccc2nc(Cn3cc(-c4ccc5[nH]ncc5c4)nn3)cn2c1 [Example 254, (2,2-dimethylpropyl)[(2-{[4-(1H-indazol-5-yl)-1H-1,2,3-triazol-1-yl]methyl}imidazo[1,2-a]pyridin-6-yl)methyl]amine]
IC50 (MOLM-13 cells): ≥ 30 µM | IC50 (METTL3/14): 10.1 µM

Compound: COC(C)(C)CNCc1ccc2nc(CNC(=O)c3cc(=O)n4ccccc4n3)cn2c1 [Compound 281, N-[[6-[[(2-methoxy-2-methyl-propyl)amino]methyl]imidazo[1,2-a]pyridin-2-yl]methyl]-4-oxo-pyrido[1,2-a]pyrimidine-2-carboxamide]
IC50 (MOLM-13 cells): ≥ 30 µM | IC50 (METTL3/14; [1]): 0.0987 µM

Compound: O=C(NCc1cn2cc(CNCCC3CC(F)(F)C3)ccc2n1)c1cc(=O)n2ccccc2n1 [Compound 213, N-{[6-({[2-(3,3-difluorocyclo-butyl)ethyl]amino}methyl)imidazo[1,2-a]pyridin-2-yl]methyl}-4-oxo-4H-pyrido [1,2-a]pyrimidine-2-carboxamide]
IC50 (MOLM-13 cells): ≥ 30 µM | IC50 (METTL3/14; [2]): 0.0418 µM

Compound: O=C(NCc1cn2cc(CNCC3(O)CCCC3)ccc2n1)c1cc(=O)n2ccccc2n1 [Compound 284, N-[[6-[[(1-hydroxycyclopentyl)methylamino]methyl]imidazo[1,2-a]pyridin-2-yl]methyl]-4-oxo-pyrido[1,2-a]pyrimidine-2-carboxamide]
IC50 (MOLM-13 cells): 7.4 µM | IC50 (METTL3/14; [1]): 0.0115 µM

Compound: O=C(NCc1cn2cc(CN[C@@H]3C[C@H]3C(F)(F)F)ccc2n1)c1cc(=O)n2ccccc2n1 [Compound 112, 4-oxo-N-{[6-({[(1R,2R)-2-(trifluoromethyl)cyclopropyl]amino}methyl)imidazo[1,2-a]pyridin-2-yl]methyl}-4H-pyrido[1,2-a] pyrimidine-2-carboxamide]
IC50 (MOLM-13 cells): 12.7 µM | IC50 (METTL3/14; [2]): 0.755 µM

Compound: O=C(NCc1cn2cc(CNCC3(F)CCC3)ccc2n1)c1cc(=O)n2ccccc2n1 [Compound 206, N-{[6-({[(1-fluorocyclobutyl)methyl]amino}methyl)imidazo [1,2-a]pyridin-2-yl]methyl}-4-oxo-4H-pyrido [1,2-a]pyrimidine-2-carboxamide]
IC50 (MOLM-13 cells): 9.13 µM | IC50 (METTL3/14; [2]): 0.0156 µM

Compound: CC(C)(O)CNCc1ccc2nc(CNC(=O)c3cc(=O)n4ccccc4n3)cn2c1 [Compound 287, N-[[6-[[(2-hydroxy-2-methyl-propyl)amino]methyl]imidazo[1,2-a]pyridin-2-yl]methyl]-4-oxo-pyrido[1,2-a]pyrimidine-2-carboxamide]
IC50 (MOLM-13 cells): ≥ 30 µM | IC50 (METTL3/14; [1]): 0.0695 µM

Compound: CC(C)(C)CNCc1ccc2nc(Cn3cc(-c4cccc5[nH]ncc45)nn3)cn2c1 [Example 250, (2,2-dimethylpropyl)[(2-{[4-(1H-indazol-4-yl)-1H-1,2,3-triazol-1-yl]methyl}imidazo[1,2-a]pyridin-6-yl)methyl]amine]
IC50 (MOLM-13 cells): 3 µM | IC50 (METTL3/14; [2]): 0.0113 µM

Compound: O=C(NCc1ccc2nc(CNC(=O)c3cc(=O)n4ccccc4n3)cn2c1)c1ccccc1 [Compound 237, 4-oxo-N-({6-[(phenylformamido)methyl]imidazo[1,2-a]pyridin-2-yl}methyl)-4H-pyrido[1,2-a]pyrimidine-2-carboxamide]
IC50 (MOLM-13 cells): 12.9 µM | IC50 (METTL3/14; [2]): 0.742 µM

Compound: CCCCNCc1ccc2nc(CNC(=O)c3cc(=O)n4ccccc4n3)cn2c1 [Compound 283, N-[[6-(butylaminomethyl)imidazo[1,2-a]pyridin-2-yl]methyl]-4-oxo-pyrido[1,2-a]pyrimidine-2-carboxamide]
IC50 (MOLM-13 cells): 10.7 µM | IC50 (METTL3/14; [1]): 0.0293 µM

Compound: O=C(NCc1cn2cc(CNCC3CC4(CC4)C3)ccc2n1)c1cc(=O)n2ccccc2n1 [Compound 278, 4-oxo-N-[[6-[(spiro[2.3]hexan-5-ylmethylamino)methyl]imidazo[1,2-a]pyridin-2-yl]methyl]pyrido[1,2-a]pyrimidine-2-carboxamide]
IC50 (MOLM-13 cells): ≥ 30 µM | IC50 (METTL3/14; [1]): 0.0276 µM

Compound: CC1(CNCc2ccc3nc(CNC(=O)c4cc(=O)n5ccccc5n4)cn3c2)CCC1 [Compound 282, N-[[6-[[(1-methylcyclobutyl)methylamino]methyl]imidazo[1,2-a]pyridin-2-yl]methyl]-4-oxo-pyrido[1,2-a]pyrimidine-2-carboxamide]
IC50 (MOLM-13 cells): 3.42 µM | IC50 (METTL3/14; [1]): 0.0106 µM
